The values that follow come from US10435752B2, “Use of ADCY3 for diagnosis and treatment of gastric cancer” (NATIONAL CANCER CENTER, priority 2012, dated 2019).

The subject of one assay is ADCY3 promoter. As to the kind of experiment: ADCY3 promoter methylation after in vitro demethylation (bisulfite sequencing). Conditions: KATO III cells, 10 μM, 96 hrs, FIG. 5D. The format is cell-based, human. The procedure:
To assay the methylation status of the ADCY3 promoter, genomic DNA was bisulfite-treated using the EZ DNA Methylation-Gold Kit (ZYMO Research, USA), and treated with methylation-specific PCR primers (Table 3) that were designed using EpiDesigner (Sequenom, USA).
A methylation-specific high-resolution melting assay (MS-HRM) was performed using 10 ng of bisulfite-treated genomic DNA and ResoLight dye in a LightCycler 480 (Roche Applied Science) according to the manufacturer's protocol. Results were analyzed using Gene Scanning software (Roche). For bisulfite sequencing, the promoter region containing 39 CpG sites was amplified from the genomic DNA of bisulfite-treated gastric cells, cloned into the TOPO-TA vector (Invitrogen), and sequenced using the 3730xl DNA analyzer (Applied Biosystems).
To investigate the effects of promoter demethylation on ADCY3 expression, KATO III cells were incubated for 96 hrs in a culture medium with or without 5-Aza-2′-deoxycytidine (5-Aza-dC; Sigma Aldrich, USA) at a final concentration of 10 μM, and the mRNA level of ADCY3 was measured using qRT-PCR.

For a further assay, the system named is ADCY3. As to the kind of experiment: ADCY3 mRNA level by qRT-PCR after demethylation. The format is cell-based, human. The note with it: KATO III cells, 10 μM, 96 hrs, relative to the negative control, FIG. 5E. The procedure:
qRT-PCR reactions were performed using a LightCycler 480 (Roche Applied Science, UK) and ABI 7500 Fast Real-Time PCR system (Applied Biosystems). Results were quantified either by using β-actin for normalization (relative quantification), or by standard curve-based absolute quantification. To investigate the effects of promoter demethylation on ADCY3 expression, KATO III cells were incubated for 96 hrs in a culture medium with or without 5-Aza-2′-deoxycytidine (5-Aza-dC; Sigma Aldrich, USA) at a final concentration of 10 μM, and the mRNA level of ADCY3 was measured using qRT-PCR.

In the case of `Nc1ncn([C@H]2C[C@H](O)[C@@H](CO)O2)c(=O)n1` [5-Aza-dC, 5-Aza-2′-deoxycytidine], the “methylation of CpG sites in the ADCY3 promoter” value with ADCY3 promoter is listed as “demethylation of CpG sites”. The “ADCY3 mRNA expression level” value in the assay on ADCY3 is listed as “recovery of ADCY3 mRNA expression level”.
